Source: patent US9549994B2, “Compositions of nicardipine and sulfoalkylated β-cyclodextrin” (EKR Therapeutics, Inc., priority 2006, dated 2017)

Legend:
[1] = Phase-solubility study of nicardipine HCl and CAPTISOL as a function of pH; type: physicochemical; settings: FIG. 1
Experimental: in this phase-solubility study, nicardipine HCl, in amounts that exceeded its solubility, was taken into vials containing buffers in the pH range of 3.6-7.4 and containing CAPTISOL® in the concentration range of 2-40% w/v. These evaluations were also done for buffer solutions containing no CAPTISOL®. The vials were sealed and shaken at room temperature until equilibrium was reached. Subsequently, test sample aliquots were withdrawn, filtered, and drug concentration was determined by RP-HPLC with UV detection.

[2] = cited from earlier work

Question: Which “solubility as a function of CAPTISOL concentration” value ([1]; at a given pH value, CAPTISOL 2-40% w/v) does the source give for `COC(=O)C1=C(C)NC(C)=C(C(=O)OCCN(C)Cc2ccccc2)C1c1cccc([N+](=O)[O-])c1.Cl` (racemic) [nicardipine HCl, (±)-2-(benzyl-methylamino)ethyl methyl 1,4-dihydro-2,6-dimethyl-4-(m-nitrophenyl)-3,5-pyridinedicarboxylate monohydrochloride] here?
Answer: increased

Question: What about the “solubility as a function of pH” value ([1]; buffers pH 3.6-7.4, room temperature) of the same molecule?
Answer: decreased with increased pH

Question: Which solubility in water [2] does the source give for `COC(=O)C1=C(C)NC(C)=C(C(=O)OCCN(C)Cc2ccccc2)C1c1cccc([N+](=O)[O-])c1` (stereo not drawn) [Nicardipine, nicardipine] here?
Answer: only slightly soluble in water
